pEC50: −log10 of the molar value. Read-outs that look alike come from different tables or passages of the source.
Columns and labels:
[1] = biological target: T1, human H4 (Homo sapiens, UniProt Q9H3N8); test: In vitro histamine receptor cell-based assay (aequorin bioluminescence), agonist mode; conditions: CHO-K1 cells expressing human H4; test compound alone, without added histamine
T1 construct: host or cells: CHO-K1
Method: (§1) The cell-based assays utilize an aequorin dependent bioluminescence signal. Doubly-transfected, stable CHO-K1 cell lines expressing human H4, or H1, mitochondrion-targeted aequorin, and (H4 only) human G protein Gα16 are obtained from Perkin-Elmer. Cells are maintained in F12 (Ham's) growth medium, containing 10% (vol./vol.) fetal bovine serum, penicillin (100 IU/mL), streptomycin (0.1 mg/mL), zeocin (0.25 mg/mL) and geneticin (0.40 mg/mL). Cell media components are from Invitrogen, Inc. One day prior to assay, the growth medium is replaced with the same, excluding zeocin and geneticin. In some assays, cells previously frozen at “ready to use density” are thawed and immediately available for loading with coelenterazine-h dye as described below. […]
(§2) Just before assay, the dye-loaded cells are diluted to 1.5×10^6 cells/mL (H4 receptor) or 0.75×10^6 cells/mL (H1 receptor) with additional assay medium. […] Assay plates are then transferred to a Lumilux bioluminescence plate reader (Perkin-Elmer) equipped with an automated 1536 disposable tip pipette. The pipette dispenses 3 μL/well of agonist (histamine, at twice the final concentration, where final concentration is a previously determined EC80) in assay medium, with concurrent bioluminescence detection. […] Efficacy is measured as a percentage of positive control activity.

[2] = In-situ salt formation screen (filtrate solubility); assay type: physicochemical; conditions: thermodynamic from solid, read-out: Filtrate Solubility
[3] = biological target: T1, human H4; test: In vitro histamine receptor cell-based assay (aequorin bioluminescence), antagonist mode; conditions: CHO-K1 cells expressing human H4, aequorin and Gα16; histamine at EC80
Method: as §1, §2

[4] = tested on: BALB/c mice; test: Model of allergic rhinitis in Balb/C mice, whole-body plethysmography; assay type: in vivo; set-up: key: +: increase in RF over positive control; −: no increase in RF over positive control; conditions: 0.1%, w/v, intranasal instillation 10 μl in each nostril 2.5 hours prior to OVA; day 4 (early phase)
Source text: Female BALB/c mice, 6-12 weeks of age, were obtained from Jackson Laboratories (Bar Harbor, Me.). All experimental animals used in this work were under a protocol approved by the Institutional Animal Care and Use Committee of the National Jewish Medical and Research Center, Denver, Colo.
The assay protocol is similar to that described in Miyahara, S. et al. (2005), J Allergy Clin Immunol., 116:1020-1027. The role of the H4 receptor in this model has been validated [Shiraishi, Y. et al. (2009), J Allergy Clin Immunol., 123:556]. Briefly, mice received intraperitoneal injections of 20 μg ovalbumin (OVA, Grade V; Sigma-Aldrich, St. Louis, Mo.), previously emulsified in 2.25 mg of alum (AlumImuject; Pierce, Rockford, Ill.) in a total volume of 100 μL (sensitization phase). Injections occurred on days 0 and 14. […] On day 4 (early phase) and day 7 (late phase) after starting OVA challenges, respiratory frequency (RF) was measured in conscious animals by single chamber restrained whole-body plethysmography (WBP) [Buxco Research Systems, Troy, N.Y.]. […] After whole-body plethysmography on day 7, nasal airflow impedance was measured as described (RNA, see Methods section for Miyahara S. et al. [above] in the online supplemental material at the Journal of Allergy and Clinical Immunology: www.jacionline.org), using a custom-designed ventilator (Flexivent; Scireq, Montreal, Quebec, Canada). […]

[5] = Solid state form conversion on storage at ambient conditions; assay type: physicochemical; conditions: solid state, ambient conditions
Source text: Two crystal forms of Compound 1 Mesylate Salt were obtained from these experiments. Compound 1 Mesylate Salt, Form 1 is a monomesylate reversible monohydrate solid state form that was obtained from ten of the twelve crystallization experiments conducted. […] Compound 1 Mesylate Salt Form 2 was obtained by slow evaporation of gummy solids at ambient temperature in two of twelve screening experiments. Compound 1 Mesylate Salt Form 2 was obtained as a mixture of Form 1 and Form 2 in one of twelve crystallization experiments.
A Compound 1 Mesylate salt form screen was conducted involving about 160 crystallization experiments in 48 solvents and aqueous mixtures was performed conducted as previously described (vide supra). Compound 1 Mesylate Salt Form 1, the reversible monohydrate initially discovered in during the crystallization experiments cited above, was obtained from a variety of solvents and crystallization conditions, including 25 slurry-ripening, six cooling, 16 evaporative and four vapor diffusion experiments. […] Samples of Compound 1, Mesylate Salt Forms 2-5 converted to Compound 1 Mesylate Salt Form 1 in solid state within one week at ambient conditions.

[6] = Solubility in aqueous acetate buffer (80 mM); assay type: physicochemical; conditions: aqueous acetate buffer (80 mM) at pH3.5-4.5
[7] = Equilibrium solubility study; assay type: physicochemical; conditions: for solubility thermodynamic: thermodynamic from solid, read-out: Filtrate Concentration (equilibrium solubility)
Method: Equilibrium solubility experiments were conducted for Compound 2 Monohydrochloride Form 1, Compound 2 Monomesylate Form 1 and Compound 2 Monocitrate Form 1 salts in water and pH-5 acetate buffer solution. The results of the equilibrium solubility study are summarized in Table 26 (where “a” indicates FTIR and PXRD spectra of both samples were distinctly different from the known forms of Compound 2 or Compound 2 Monocitrate salt Form 1).

[8] = Gravimetric Vapor Sorption (GVS); assay type: physicochemical; conditions: 25° C.
Method: GVS: GVS experiments were conducted on a SurfaceMeasurement Systems DVS-HT at 25° C. The instrument was operated in step mode and the relative humidity (RH) was increased in 10% RH increments from 40% RH to 90% RH, then decreased from 90% RH to 0% RH, then increased a second time from 0% RH to 90% RH, then decreased from 90% RH to 0% RH. An extra step at 75% RH was included in each cycle. The mass equilibrium criterion was set at 0.005% change in mass over time (dm/dt). A minimum step time of 10 minutes and a maximum step time of 240 minutes were specified.

T1 sequence (Q9H3N8 whole entry): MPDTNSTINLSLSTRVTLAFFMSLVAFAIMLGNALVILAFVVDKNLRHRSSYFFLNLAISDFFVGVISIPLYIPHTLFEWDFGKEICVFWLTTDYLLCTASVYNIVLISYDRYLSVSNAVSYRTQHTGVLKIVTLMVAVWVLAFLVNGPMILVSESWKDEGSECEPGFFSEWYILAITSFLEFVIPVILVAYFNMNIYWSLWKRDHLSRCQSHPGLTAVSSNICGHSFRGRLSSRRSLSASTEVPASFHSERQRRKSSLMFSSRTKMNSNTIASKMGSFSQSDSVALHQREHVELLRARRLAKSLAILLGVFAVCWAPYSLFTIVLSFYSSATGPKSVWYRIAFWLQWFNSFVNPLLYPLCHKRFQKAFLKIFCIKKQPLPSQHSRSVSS

CN1CCN(c2ncc(-c3cccs3)n3nnnc23)CC1 [Compound 1, 8-(4-Methylpiperazin-1-yl)-5-(thiophen-2-yl)tetrazolo[1,5-a]pyrazine]
pEC50 [1]: < 4.00 | solubility at 48 h ([2]; aqueous buffer, 0.1M aqueous Acetic Acid, filtrate pH 4.02, filtrant Free Base): 7990 µg/mL | solubility at 48 h ([2]; aqueous buffer, 0.1M aqueous Citric Acid, filtrate pH 3.11, filtrant Salt): 1750 µg/mL | solubility at 48 h ([2]; aqueous buffer, 0.1M aqueous L-Glutamic Acid, filtrate pH 4.28, filtrant Free Base): 6750 µg/mL | solubility at 48 h ([2]; aqueous buffer, 0.1M aqueous L-Malic Acid, filtrate pH 4.15, filtrant Salt): 13400 µg/mL | solubility at 48 h ([2]; aqueous buffer, 0.1M aqueous L-Tartaric Acid, filtrate pH 3.48, filtrant Salt): 8690 µg/mL | solubility at 48 h ([2]; aqueous buffer, 0.1M aqueous Mesic Acid, filtrate pH 1.49, No Solids Isolated): 20000 µg/mL | solubility at 48 h ([2]; aqueous buffer, 0.1M aqueous Phosphoric Acid, filtrate pH 1.76, filtrant Salt): 870 µg/mL | solubility at 48 h ([2]; aqueous buffer, 0.1M aqueous Succinic Acid, filtrate pH 4.13, filtrant Free Base): 10400 µg/mL | solubility at 48 h ([2]; aqueous buffer, 0.1M aqueous Sulfuric Acid, filtrate pH 1.39, filtrant Salt): 560 µg/mL | solubility at 48 h ([2]; pH 4.2, aqueous buffer, 0.1M aqueous L-Aspartic Acid, filtrate pH 4.20, filtrant Free Base): 8640 µg/mL | solubility at 48 h ([2]; simulated gastric fluid, 0.1M aqueous Hydrochloric Acid, filtrate pH 1.25, filtrant Salt): 990 µg/mL | pEC50 [3]: ≥ 5.00 | WBP, Day 4 (respiratory frequency, RF) [4]: +

CN1CCN(c2ncc(-c3cccs3)n3nnnc23)CC1.CS(=O)(=O)O [Compound 1 Mesylate Salt Form 1, 8-(4-Methylpiperazin-1-yl)-5-(thiophen-2-yl)tetrazolo[1,5-a]pyrazine Mesylate Monohydrate]
crystal form stability [5]: the most, and the only, stable crystal form | improvement in solubility over Compound 1 [6]: > 5 fold | solubility thermodynamic ([7]; 0.2 M acetate buffer, pH 5, aqueous buffer, 0.2M Acetate Buffer (pH5), final pH 4.17, residual solid Free Base): 58200 µg/mL | Filtrate Concentration (equilibrium solubility) ([7]; Water, final pH 3.51, Dissolved, Mesylate Monohydrate): >100000 µg/mL | solubility thermodynamic ([7]; water, pH 3.51, water, Water, final pH 3.51, Dissolved): > 100000 µg/mL | solubility ([7]; water, aqueous): > 100000 µg/mL | hygroscopicity (GVS) [8]: not hydroscopic | GVS loss of water ([8]; below 20% RH): ~4.30% | GVS water content ([8]; between 20-90% RH): ~4.3%

CNC1CN(c2ncc(-c3cccs3)n3nnnc23)C1 [Compound 2, N-methyl-1-(5-(thiophen-2-yl)tetrazolo[1,5-a]pyrazin-8-yl)azetidin-3-amine]
pEC50 [1]: < 4.00 | solubility at 48 h ([2]; aqueous buffer, 0.1M aqueous Acetic Acid, filtrate pH 5.41, No Solids Isolated): > 24500 µg/mL | solubility at 48 h ([2]; aqueous buffer, 0.1M aqueous Citric Acid, filtrate pH 3.69, filtrant Salt): 4270 µg/mL | solubility at 48 h ([2]; aqueous buffer, 0.1M aqueous L-Aspartic Acid, filtrate pH 4.95, No Solids Isolated): > 18400 µg/mL | solubility at 48 h ([2]; aqueous buffer, 0.1M aqueous L-Glutamic Acid, filtrate pH 5.46, filtrant Free Base): 10400 µg/mL | solubility at 48 h ([2]; aqueous buffer, 0.1M aqueous L-Malic Acid, filtrate pH 5.13, No Solids Isolated): > 21100 µg/mL | solubility at 48 h ([2]; aqueous buffer, 0.1M aqueous L-Tartaric Acid, filtrate pH 3.23, filtrant Salt): 1390 µg/mL | solubility at 48 h ([2]; aqueous buffer, 0.1M aqueous Mesic Acid, filtrate pH 2.28, No Solids Isolated): > 25300 µg/mL | solubility at 48 h ([2]; aqueous buffer, 0.1M aqueous Phosphoric Acid, filtrate pH 4.8, filtrant Salt): 740 µg/mL | solubility at 48 h ([2]; aqueous buffer, 0.1M aqueous Succinic Acid, filtrate pH 4.75, filtrant Salt): 100 µg/mL | solubility at 48 h ([2]; aqueous buffer, 0.1M aqueous Sulfuric Acid, filtrate pH 1.42, filtrant Salt): 610 µg/mL | solubility at 48 h ([2]; simulated gastric fluid, 0.1M aqueous Hydrochloric Acid, filtrate pH 2.32, filtrant Salt): 15200 µg/mL | pEC50 [3]: ≥ 5.00 | WBP, Day 4 (respiratory frequency, RF) [4]: +
